Residues, ends and D or L forms follow the SMILES beside them.
Columns and labels:
[1] = test system: interaction of platelets with collagen 1 (rat tail); assay: platelet-collagen 1 interaction assay (counter-screen); format: cell-based, human; settings: test substances at 10 μM
Procedure: For this assay essentially the same set up was used as described above for testing the adhesion of platelets onto A1-coated plates.
To coat wells with rat tail collagen1, a stock solution consisting of 200 μg/ml Collagen I (rat tail, SIGMA (C8897)) in 0.01 M acetic acid was prepared. This solution was diluted with 0.01 M acetic acid to 10 μg/ml and 25 μl was added to a 384 well. Plates were incubated overnight at 4 C for binding of collagen1 to the well. One hour before test substance addition, the wells of the plates were blocked with BSA as described above. Also the preparation, labeling and dispension of platelets was as described for vWF-A1. For the platelet adhesion to collagen I, the concentration of MgCl2 was increased to 4 mM and the number of platelets added per well to 50 000 platelets. Using these conditions, the assay was able to detect the interaction of specific inhibitors with good statistical parameters, see FIG. 11.
A set of 6 plates were tested under automated conditions. For all plates a Z′ value above 0.5 was obtained with a S/B of 20 or more.
A training set composed 69 test substances in total was used to validate this assay. […]

[2] = target: T1, interaction of platelets (GPIb) with vWF-A1 domain (Homo sapiens, UniProt P07359); assay: platelet adhesion to wells coated with vWF-A1 (calcein-AM labelled platelets, Acumen laser-scanning cytometry); format: cell-based
T1 construct: it is advantageous to use whole platelets instead of the isolated GpIb protein; host or cells: human platelets from platelet concentrate
Procedure: 25 μl of the TBS-vWF-A1-Coating/Blocking-Puffer 1× (containing 15 μg/ml vWF-A1) is added sterile per well using a Multidrop from Labsystems. Plates were incubated and stored minimally overnight up to one week. Storage is at 4 C, sterile and protected against evaporation.
One hour before test substance addition, the wells of the plates were blocked with BSA. Before the wells were washed with 1×TBS-Washbuffer, 60 μl/Well using an ELx405 Microplate Washer (96 wells) from Biotek.
Immediately after (wells should not dry out) the wells were blocked 5% BSA-Fatty acid free 40 μl/Well using a Multidrop from Labsystems. Wells were incubated 1-2 hours until test substances were added.
Sealed plates delivered from test substance management were stored at −20° C. until use. Test substances were dissolved in 100% DMSO at 3 mM. Test substances were diluted in TBS-Adhaesionbuffer 1× till 10 μM final concentration. Diluted test substance were stored at RT and used within hours. HTS occurred in single-point determination.
Surplus of BSA is washed away by washing the wells with 1×TBS-Washbuffer, 60 μl/Well using an ELx405 Microplate Washer (96 wells) from Biotek, followed by the addition of 10 μl test substance solution or high and low control using Cybio robotics. Plates were not allowed to dry out.
LOW-Control: no vWF-A1-Coating, just BSA-treated plates for blocking HIGH-Control: vWF-A1+ Standard (non-toxic GPIb inhibitor) vWF-A1+ and OS-1 10 μM
The total time needed between removing the platelets from the platelet concentrate, as obtained from the German Red Cross and disoensing the platelets into the multiwall plates should be between 45-60 mins.
The bag containing the platelet concentrate, as obtained from the German Red Cross, is removed from the agitation table (see 1.2; cells) and is put in a sterile flow cabinet on an absorbing towel to absorb any spills. The tubing, tube clamps and scissors are sterilized with 70% ethanol in water.
The tubing from the bag with platelet concentrate is clamped and the tubing is cut. The clamp is released and the first ca. 10 ml concentrate that comes out of the bag is discarded. 30 ml concentrate is poured into n 50 ml BD-Falcon tube made of polypropylene.
Next, 2.5 μl PGE-stock (0.5 mg/ml) is added to an empty 12 ml round-bottom tube made of polypropylene (Greiner). To this 5 ml platelet concentrate is added (final concentration of PGE1 is 0.25 μg/ml) and the tube is gently mixed and incubated 5 min at RT. […]

T1 sequence (P07359 17-652): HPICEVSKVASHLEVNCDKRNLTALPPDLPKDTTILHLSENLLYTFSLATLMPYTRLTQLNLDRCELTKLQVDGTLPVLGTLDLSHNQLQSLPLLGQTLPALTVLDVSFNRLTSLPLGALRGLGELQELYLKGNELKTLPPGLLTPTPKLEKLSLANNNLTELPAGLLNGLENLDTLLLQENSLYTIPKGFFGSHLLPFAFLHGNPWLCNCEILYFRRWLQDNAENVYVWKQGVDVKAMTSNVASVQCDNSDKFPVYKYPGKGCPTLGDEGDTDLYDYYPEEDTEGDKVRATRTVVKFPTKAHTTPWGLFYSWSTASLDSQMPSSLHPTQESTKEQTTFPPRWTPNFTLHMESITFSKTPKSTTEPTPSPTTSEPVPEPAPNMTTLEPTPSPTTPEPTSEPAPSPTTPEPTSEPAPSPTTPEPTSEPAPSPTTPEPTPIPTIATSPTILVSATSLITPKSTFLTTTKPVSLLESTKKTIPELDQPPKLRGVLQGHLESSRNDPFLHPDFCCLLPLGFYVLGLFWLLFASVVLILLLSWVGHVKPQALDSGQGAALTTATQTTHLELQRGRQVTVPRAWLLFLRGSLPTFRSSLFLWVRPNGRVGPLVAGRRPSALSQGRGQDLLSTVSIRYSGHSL
T1 sequence (P13224 26-206 partner): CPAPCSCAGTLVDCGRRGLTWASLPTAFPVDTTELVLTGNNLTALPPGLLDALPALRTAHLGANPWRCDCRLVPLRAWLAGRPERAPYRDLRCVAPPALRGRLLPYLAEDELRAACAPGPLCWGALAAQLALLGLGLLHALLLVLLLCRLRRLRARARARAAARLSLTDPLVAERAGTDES
T1 sequence (P14770 17-177 partner): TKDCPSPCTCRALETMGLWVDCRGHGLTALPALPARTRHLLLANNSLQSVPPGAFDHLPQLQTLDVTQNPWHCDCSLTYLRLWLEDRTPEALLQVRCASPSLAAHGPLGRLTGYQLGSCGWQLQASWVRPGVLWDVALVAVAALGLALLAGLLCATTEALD

## CSCC[C@@H]1NC(=O)[C@H](CCCNC(=N)N)NC(=O)[C@H](CCC(=O)O)NC(=O)[C@H]([C@@H](C)O)NC(=O)[C@@H](N)CSSC[C@@H](C(=O)O)NC(=O)[C@H](CC(C)C)NC(=O)[C@H](CC(N)=O)NC(=O)[C@H](Cc2c[nH]cn2)NC(=O)[C@H](CC(C)C)NC(=O)[C@H](C)NC1=O [OS-1] (HELM PEPTIDE1{C.T.E.R.M.A.L.H.N.L.C}$PEPTIDE1,PEPTIDE1,1:R3-11:R3$$$V2.0; N-terminus and C-terminus assumed)
[1]
  inhibition of the platelet interaction with collagen: did not inhibit
[2]; OS-1 at 10 μM, optimized washer settings, FIG. 6
  inhibition at 10 µM: ~90%
[2]; all plates of the run, FIG. 9
  inhibition by OS-1 during fully automated run of 30 plates: high inhibition
[2]; optimized washer program, FIG. 6 legend
  inhibition of platelet attachment to vWF-A1 (in words): almost complete inhibition
[2]; prolonged storage at room temperature, FIG. 8
  effect of increasing plate storage times on inhibition: almost constant values

Source: US20130189714A1, “METHOD FOR THE DETECTION AND/OR QUANTIFICATION OF THE INTERACTION OF PLATELETS WITH INTERACTION PARTNERS” (SANOFI, priority 2010, published 2013)
